Source: the supplement of paper PMC11061612

Experiments:
[1] = tested on: COLO-829 (Melanoma); test: Bliss excess, mean over the matrix (fraction); higher = more synergy
In short: (§1)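 Cell lines in DMEM/F12 or RPMI with 10% FBS were plated in 1536-well plates, held 24 hours at 37°C, 5% CO2, then given two-drug dose matrices for 72 hours (DMSO typically 0.2%). Viability was read by CellTiter-Glo 2.0 luminescence and scaled as inhibition from 0 (vehicle wells) to 1 (blank wells). Combination Emax is the second-highest inhibition in the matrix; Bliss excess is observed combination effect minus expected EA + EB − EA·EB, EA and EB being single-agent effects.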

[2] = tested on: RKO (Colorectal Carcinoma); test: as above
In short: as §1

[3] = tested on: HO-1-u-1 (Oral Cavity Carcinoma); test: as above
In short: as §1

[4] = tested on: KARPAS-231 (B-Cell Non-Hodgkin's Lymphoma); test: as above
In short: as §1

[5] = tested on: CTB-1 (B-Cell Non-Hodgkin's Lymphoma); test: as above
In short: as §1

[6] = tested on: LoVo (Colorectal Carcinoma); test: as above
In short: as §1

[7] = tested on: LB771-HNC (Head and Neck Carcinoma); test: as above
In short: as §1

[8] = tested on: HARA (Squamous Cell Lung Carcinoma); test: as above
In short: as §1

[9] = tested on: 8305C (Thyroid Gland Carcinoma); test: as above
In short: as §1

[10] = tested on: RT-112 (Bladder Carcinoma); test: as above
In short: as §1

[11] = tested on: OVCAR-8 (Ovarian Carcinoma); test: as above
In short: as §1

[12] = tested on: Mewo (Melanoma); test: as above
In short: as §1

[13] = tested on: NCI-H69 (Small Cell Lung Carcinoma); test: as above
In short: as §1

[14] = tested on: EN (Endometrial Carcinoma); test: as above
In short: as §1

[15] = tested on: SU-DHL-6 (B-Cell Non-Hodgkin's Lymphoma); test: as above
In short: as §1

[16] = tested on: 639-V (Bladder Carcinoma); test: as above
In short: as §1

[17] = tested on: NCI-H28 (Mesothelioma); test: combination Emax (second highest fraction inhibited in the dose matrix, 72 h); higher = more inhibition; extreme values may be limits of the assay
In short: as §1

[18] = tested on: LoVo (Colorectal Carcinoma); test: as above
In short: as §1

[19] = tested on: HARA (Squamous Cell Lung Carcinoma); test: as above
In short: as §1

[20] = tested on: OC-314 (Ovarian Carcinoma); test: as above
In short: as §1
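Throughout, for Bliss excess, mean over the matrix: after 72 h of two-drug dosing.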

| Structure (SMILES) | Bliss excess [1] | Bliss excess [2] | Bliss excess [3] | Bliss excess [4] | Bliss excess [5] | Bliss excess [6] | Bliss excess [7] | Bliss excess [8] | Bliss excess [9] | Bliss excess [10] | Bliss excess [11] | Bliss excess [12] | Bliss excess [13] | Bliss excess [14] | Bliss excess [15] | Bliss excess [16] | combination Emax [17] | combination Emax [18] | combination Emax [19] | combination Emax [20] |
| --- | --- | --- | --- | --- | --- | --- | --- | --- | --- | --- | --- | --- | --- | --- | --- | --- | --- | --- | --- | --- |
| C[C@@H]1COCCN1c1cc(C2([S@](C)(=N)=O)CC2)nc(-c2ccnc3[nH]ccc23)n1 [AZD6738] + O=C(c1cc(Cc2n[nH]c(=O)c3ccccc23)ccc1F)N1CCN(C(=O)C2CC2)CC1 [Olaparib] (first compound max 10 µM, 7x7, partner max 10 µM) | -0.0067 | 0.0101 | 0.0528 | -0.0708 | -0.0454 | -0.0084 | 0.0337 | 0.033 | -0.0594 | -0.0643 | 0.0495 | -0.0368 | -0.0283 | -0.0479 | -0.0124 | 0.0684 | 0.408 | 0.772 | 0.778 | 0.872 |
| CC1(C)CCC(CN2CCN(c3ccc(C(=O)NS(=O)(=O)c4ccc(NCC5CCOCC5)c([N+](=O)[O-])c4)c(Oc4cnc5[nH]ccc5c4)c3)CC2)=C(c2ccc(Cl)cc2)C1 [Venetoclax] + CN(C)CCCOc1ccc(-c2ccc3ncc4c(c3c2)n(C2CCOCC2)c(=O)n4C)cn1 [AZD0156] (first compound max 1 µM, 7x7, partner max 1 µM) | -0.0264 | 0.0566 | -0.003 | -0.0599 | -0.024 | -0.0251 | -0.0215 | -0.0121 | -0.0626 | -0.0232 | -0.0089 | -0.0483 | 0.002 | -0.0832 | 0.036 | 0.02 | 0.193 | 0.283 | 0.651 | 0.316 |
| CN(CCO)CC[C@H](CSc1ccccc1)Nc1ccc(S(=O)(=O)NC(=O)c2ccc(N3CCC([C@@H](O)c4ccccc4-c4ccc(Cl)cc4)CC3)cc2)cc1S(=O)(=O)C(F)(F)F [AZD4320] + C[C@@H]1COCCN1C2=NC(=NC(=C2)C3(CC3)[S@](=N)(=O)C)C4=C5C=CNC5=NC=C4 [AZD6738] (first compound max 1 µM, 7x7, partner max 10 µM) | -0.0409 | -0.0309 | 0.021 | -0.0331 | -0.0791 | -0.0355 | 0.0047 | -0.0319 | -0.004 | 0.0135 | -0.0222 | -0.0275 | -0.0446 | -0.056 | -0.0311 | -0.0022 | 0.668 | 0.838 | 0.884 | 0.909 |
| COc1cccc(OCCCN)c1-c1cc(Nc2cnc(C#N)cn2)n[nH]1 [Prexasertib] + C[C@@H]1COCCN1C2=NC(=NC(=C2)C3(CC3)[S@](=N)(=O)C)C4=C5C=CNC5=NC=C4 [AZD6738] (first compound max 1 µM, 7x7, partner max 10 µM) | 0.001 | -0.0176 | -0.0013 | -0.0498 | -0.091 | -0.0296 | -0.0024 | -0.0117 | -0.0226 | 0.0275 | -0.0151 | -0.0403 | -0.0356 | -0.0416 | -0.0158 | 0.0838 | 0.592 | 0.869 | 0.943 | 0.934 |
| CC1(C)CCC(CN2CCN(c3ccc(C(=O)NS(=O)(=O)c4ccc(NCC5CCOCC5)c([N+](=O)[O-])c4)c(Oc4cnc5[nH]ccc5c4)c3)CC2)=C(c2ccc(Cl)cc2)C1 [Venetoclax] + Cn1cnc2c(F)c(Nc3ccc(Br)cc3Cl)c(C(=O)NOCCO)cc21 [Selumetinib] (first compound max 1 µM, 7x7, partner max 3 µM) | -0.0392 | 0.0171 | -0.0352 | -0.177 | -0.0475 | -0.0458 | -0.0555 | -0.0084 | -0.0583 | 0.0554 | -0.0373 | -0.0252 | -0.105 | -0.0325 | 0.0155 | 0.0346 | 0.142 | 0.374 | 0.617 | 0.134 |
| COc1cccc2c1C(=O)c1c(O)c3c(c(O)c1C2=O)C[C@@](O)(C(=O)CO)C[C@@H]3O[C@H]1C[C@H](N)[C@H](O)[C@H](C)O1 [Doxorubicin] + Cc1cc2ncnn2cc1Nc1ncc2c(n1)n(C1CCOCC1)c(=O)n2C [AZD7648] (first compound max 1 µM, 7x7, partner max 10 µM) | 0.0212 | 0.0473 | 0.0091 | 0.0522 | 0.077 | 0.0105 | -0.035 | 0.0915 | -0.0023 | 0.151 | 0.061 | 0.0082 | 0.0064 | 0.0108 | 0.0697 | 0.117 | 0.605 | 0.688 | 0.808 | 1 |
| CN(CCO)CC[C@H](CSc1ccccc1)Nc1ccc(S(=O)(=O)NC(=O)c2ccc(N3CCC([C@@H](O)c4ccccc4-c4ccc(Cl)cc4)CC3)cc2)cc1S(=O)(=O)C(F)(F)F [AZD4320] + Cc1cc2ncnn2cc1Nc1ncc2c(n1)n(C1CCOCC1)c(=O)n2C [AZD7648] (first compound max 1 µM, 7x7, partner max 10 µM) | -0.04 | -0.0148 | -0.0172 | 0.036 | -0.0401 | 0.0195 | -0.0395 | -0.0133 | 0.0242 | 0.0058 | -0.049 | -0.0104 | -0.0474 | -0.01 | -0.0099 | -0.0244 | 0.15 | 0.565 | 0.244 | 0.22 |
| COc1cccc(OCCCN)c1-c1cc(Nc2cnc(C#N)cn2)n[nH]1 [Prexasertib] + Cc1cc2ncnn2cc1Nc1ncc2c(n1)n(C1CCOCC1)c(=O)n2C [AZD7648] (first compound max 1 µM, 7x7, partner max 10 µM) | 0.0467 | -0.0193 | 0.0035 | 0.0123 | -0.0352 | -0.0687 | -0.0088 | -0.0085 | -0.0726 | -0.0357 | 0.0125 | -0.0079 | 0.0337 | -0.0753 | 0.0159 | -0.0051 | 0.639 | 0.879 | 0.953 | 0.946 |
| Cc1cc2ncnn2cc1Nc1ncc2c(n1)n(C1CCOCC1)c(=O)n2C [AZD7648] + CCN(CCO)CCCOc1ccc2c(Nc3cc(CC(=O)Nc4cccc(F)c4)[nH]n3)ncnc2c1 [AZD2811] (first compound max 10 µM, 7x7, partner max 1 µM) | -0.0034 | 0.0369 | 0.0258 | -0.0041 | -0.0578 | -0.0126 | 0 | 0.017 | -0.0159 | 0.0796 | 0.0473 | 0.0082 | 0.0296 | -0.0671 | 0.0052 | 0.0219 | 0.345 | 0.529 | 0.364 | 0.477 |
| COc1cccc(OCCCN)c1-c1cc(Nc2cnc(C#N)cn2)n[nH]1 [Prexasertib] + O=C(c1cc(Cc2n[nH]c(=O)c3ccccc23)ccc1F)N1CCN(C(=O)C2CC2)CC1 [Olaparib] (first compound max 1 µM, 7x7, partner max 10 µM) | -0.058 | -0.0165 | -0.109 | -0.0206 | -0.0667 | -0.129 | -0.0162 | -0.0682 | -0.0732 | -0.137 | -0.0475 | -0.0708 | 0.0332 | -0.0336 | 0.0089 | 0.101 | 0.597 | 0.798 | 0.964 | 0.971 |
| CC1(C)CCC(CN2CCN(c3ccc(C(=O)NS(=O)(=O)c4ccc(NCC5CCOCC5)c([N+](=O)[O-])c4)c(Oc4cnc5[nH]ccc5c4)c3)CC2)=C(c2ccc(Cl)cc2)C1 [Venetoclax] + COc1cc(Nc2ncc3c(n2)-c2ccc(Cl)cc2C(c2c(F)cccc2OC)=NC3)ccc1C(=O)O [Alisertib] (first compound max 1 µM, 7x7, partner max 10 µM) | -0.0548 | -0.0062 | 0.0246 | 0.0566 | -0.0467 | -0.0799 | -0.0185 | 0.018 | -0.0592 | -0.0323 | 0.0079 | -0.0163 | 0.146 | -0.0554 | 0.121 | 0.0173 | 0.348 | 0.48 | 0.787 | 0.504 |
| Cc1c2c(nn1C)CSCc1cc(n(C)n1)CSc1cc(c3ccccc3c1)OCCCc1c(C(=O)O)n(C)c3c-2c(Cl)ccc13 [AZD5991] + C[C@@H]1COCCN1C2=NC(=NC(=C2)C3(CC3)[S@](=N)(=O)C)C4=C5C=CNC5=NC=C4 [AZD6738] (first compound max 1 µM, 7x7, partner max 10 µM) | 0.0471 | 0.0082 | -0.0074 | 0.0252 | -0.0314 | -0.033 | 0.0599 | -0.0283 | -0.0605 | 0.0348 | 0.001 | -0.0329 | -0.0477 | -0.0039 | -0.0137 | 0.0431 | 0.533 | 0.889 | 0.776 | 0.832 |
| CC(=O)Nc1cccc(-n2c(=O)n(C3CC3)c(=O)c3c(Nc4ccc(I)cc4F)n(C)c(=O)c(C)c32)c1 [Trametinib] + Cc1nc(-c2cn3c(n2)-c2ccc(-c4cnn(C(C)(C)C(N)=O)c4)cc2OCC3)n(C(C)C)n1 [Taselisib] (first compound max 1 µM, 7x7, partner max 10 µM) | 0.234 | 0.219 | 0.0754 | -0.0605 | 0.0136 | -0.0092 | 0.125 | 0.162 | 0.0656 | 0.106 | 0.121 | 0.0975 | -0.0257 | 0.0161 | 0.0238 | 0.068 | 0.632 | 0.708 | 0.818 | 0.707 |
